Experimental data published in US9409952B2, “Peptide-compound cyclization method” (Chugai Seiyaku Kabushiki Kaisha, priority 2011, dated 2016).
Starred links: 1 amine or outer side, 2 acyl side, 3 side chain; linkers in the order of their positions; H or OH if unused. Positions of bridges follow the written chain, without caps; N, C: chain ends. Non-standard residues stand in square brackets, D forms with d. Residues, ends and D or L forms follow the SMILES beside them. ξ: configuration not given here. *: point of attachment. Phe(4-(CH2)5CO) = O=C([C@H](Cc1ccc(CCCCCC(=O)[*:3])cc1)N[*:1])[*:2]; Phe(3-(CH2)4CO) = O=C([C@H](Cc1cccc(CCCCC(=O)[*:3])c1)N[*:1])[*:2]; Tyr(3-F) = N[C@@H](Cc1ccc(O)c(F)c1)C(=O)O; NEtPhe = CCN[C@@H](Cc1ccccc1)C(=O)O; NMeF = CN[C@@H](Cc1ccccc1)C(=O)O; NMeI = CC[C@H](C)[C@H](NC)C(=O)O; hPhe = N[C@@H](CCc1ccccc1)C(=O)O; NMeβAla = CN(CCC(=O)[*:2])[*:1]; AllylGly = C=CC[C@H](N)C(=O)O; NMeL = CN[C@@H](CC(C)C)C(=O)O; Ala(CN) = N#CC[C@H](N)C(=O)O; NMeV = CN[C@H](C(=O)O)C(C)C; Pip = O=C(O)[C@@H]1CCCCN1; NMeA = CN[C@@H](C)C(=O)O; Piperidide = C1CCN(*)CC1; dNMeA = CN[C@H](C)C(=O)O; ξL = CC(C)CC(N)C(=O)O; NPrGly = CCCNCC(=O)O; Sar = CNCC(=O)O; tBu = CC(C)(C)*

test: Metabolic stability in human hepatic microsome; assay type: in vitro ADME; details: not given

SMILES | Hepatic microsome CLhint (Human) In the absence of NADPH | Hepatic microsome CLhint (Human) In the presence of NADPH
CC(C)C[C@H]1C(=O)N[C@@H](COC(C)(C)C)C(=O)N[C@H](C(=O)N2CCCCC2)CCC(=O)N[C@@H](C)C(=O)N(C)[C@@H](C)C(=O)N(C)[C@@H](Cc2ccccc2)C(=O)N(C)[C@@H](CC(C)C)C(=O)N[C@@H]([C@@H](C)O)C(=O)N(C)CC(=O)N1C [Compound P-121, Ala-MeAla-MePhe-MeLeu-Thr-MeGly-MeLeu-Ser(tBu)-Glu-piperidine] (A[NMeA][NMeF][NMeL]T[Sar][NMeL]S(tBu)E-Piperidide; lactam N-9) | 8 ul/min/mg Protein | 69 ul/min/mg Protein

same assay, conditions: human, liver microsomes, pH 7.4, Hepatic microsome CLhint (Human) In the presence of NADPH

SMILES | microsomal CLint at 1 uM
CC(C)C[C@H]1C(=O)N[C@@H](COC(C)(C)C)C(=O)N[C@H](C(=O)N2CCCCC2)CCC(=O)N[C@@H](C)C(=O)N(C)[C@@H](C)C(=O)N(C)[C@@H](Cc2ccccc2)C(=O)N(C)[C@@H](CC(C)C)C(=O)N[C@@H]([C@@H](C)O)C(=O)N(C)CC(=O)N1C [Compound P-121, Ala-MeAla-MePhe-MeLeu-Thr-MeGly-MeLeu-Ser(tBu)-Glu-piperidine] (A[NMeA][NMeF][NMeL]T[Sar][NMeL]S(tBu)E-Piperidide; lactam N-9) | 29 µL/min/mg

same assay, conditions: human, microsomes, pH 7.4, CL NADPH(+)

SMILES | microsomal CLint at 1 uM
CC[C@H](C)[C@H](NC(=O)[C@H](CC(C)C)N(C)C(=O)[C@@H](NC(=O)[C@@H]1CC(=O)N[C@@H](C)C(=O)N[C@@H](CC(C)C)C(=O)N[C@@H]([C@@H](C)O)C(=O)N(C)[C@@H](Cc2ccccc2)C(=O)N[C@@H](Cc2ccccc2)C(=O)N(C)[C@@H](C)C(=O)N1)C(C)C)C(=O)N1CCCCC1 [DP-46] (ALT[NMeF]F[NMeA]DV[NMeL]I-Piperidide; lactam N-7) | 249 µL/min/mg
CC[C@H](C)[C@@H]1NC(=O)[C@H](Cc2ccccc2)N(C)C(=O)[C@H](Cc2ccccc2)NC(=O)[C@H](CC(C)C)NC(=O)[C@H](CC(C)C)N(C)C(=O)[C@H](C)N(C)C(=O)[C@H](C(C)C)NC(=O)[C@H](C)NC(=O)C[C@@H](C(=O)N2CCCCC2)NC(=O)[C@H](CC(C)C)N(C)C(=O)[C@H]([C@@H](C)O)NC(=O)[C@@H]2CCCN2C1=O [DP-25] (AV[NMeA][NMeL]LF[NMeF]IPT[NMeL]D-Piperidide; lactam N-12) | 24 µL/min/mg
CC[C@H](C)[C@@H]1NC(=O)[C@H](C)NC(=O)C[C@@H](C(=O)N2CCCCC2)NC(=O)[C@@H]2CCCN2C(=O)C(CC(C)C)NC(=O)[C@H](Cc2ccccc2)N(C)C(=O)[C@H]([C@@H](C)O)NC(=O)[C@H](Cc2ccccc2)N(C)C(=O)[C@H](C)N(C)C1=O (stereo partly drawn) [DP-34] (AI[NMeA][NMeF]T[NMeF][ξL]PD-Piperidide; lactam N-9) | 102 µL/min/mg
CC[C@H](C)[C@H](NC(=O)[C@H](Cc1ccccc1)N(C)C(=O)[C@@H]1CC(=O)N(C)[C@@H](C)C(=O)N[C@@H](Cc2ccccc2)C(=O)N(C)[C@@H](CC(C)C)C(=O)N(C)[C@@H](CC(C)C)C(=O)N[C@@H](Cc2ccccc2)C(=O)N(C)[C@@H](CC(C)C)C(=O)N[C@@H]([C@@H](C)CC)C(=O)N2CCC[C@H]2C(=O)N[C@@H]([C@@H](C)O)C(=O)N[C@@H](CC(C)C)C(=O)N1)C(=O)N1CCCCC1 [DP-962] ([NMeA]F[NMeL][NMeL]F[NMeL]IPTLD[NMeF]I-Piperidide; lactam N-11) | 22 µL/min/mg
CC[C@H](C)[C@@H]1NC(=O)[C@H](Cc2ccccc2)NC(=O)[C@H](C)NC(=O)C[C@@H](C(=O)N2CCCCC2)NC(=O)[C@H](CC(C)C)NC(=O)[C@H](CC(C)C)NC(=O)[C@H](C(C)C)NC(=O)[C@H](C)N(C)C(=O)[C@H](Cc2ccccc2)NC(=O)CNC(=O)[C@H]([C@@H](C)O)NC(=O)[C@H](CC(C)C)NC(=O)[C@@H]2CCCN2C1=O [DP-19] (AFIPLTGF[NMeA]VLLD-Piperidide; lactam N-13) | 80 µL/min/mg

same assay, conditions: microsomes, pH 7.4; human hepatic microsome, NADPH(+); read-out: CL NADPH(+)

SMILES | microsomal CLint at 1 uM
C=CC[C@@H]1NC(=O)[C@H](CC(C)C)N(C)C(=O)[C@H](CC(C)C)N(C)C(=O)CNC(=O)[C@H](Cc2ccccc2)N(C)C(=O)[C@H]([C@@H](C)O)NC(=O)[C@H](CC(C)C)N(C)C(=O)[C@H](Cc2ccccc2)NC(=O)[C@H](C)NC(=O)C[C@@H](C(=O)N(C)[C@@H](Cc2ccccc2)C(=O)N[C@@H](C)C(=O)N2CCCCC2)NC1=O [DP-611] (AF[NMeL]T[NMeF]G[NMeL][NMeL][AllylGly]D[NMeF]A-Piperidide; lactam N-10) | 20 µL/min/mg
C=C1CCC(=O)N(C)[C@@H](Cc2ccccc2)C(=O)N[C@@H](CC(C)C)C(=O)N(C)[C@@H](CC(C)C)C(=O)N[C@@H]([C@@H](C)O)C(=O)N(C)CC(=O)N(C)[C@@H]([C@@H](C)CC)C(=O)N[C@@H](COC(C)(C)C)C(=O)N(C)[C@@H](Cc2ccccc2)C(=O)N(C)[C@@H](C(C)C)C(=O)N[C@H](C(=O)N2CCCCC2)Cc2cccc1c2 [DP-851] | 99 µL/min/mg
CC[C@H](C)[C@H]1C(=O)N[C@H](C(=O)N2CCCCC2)CC(=O)N[C@@H](C)C(=O)N[C@@H]([C@@H](C)O)C(=O)N(C)[C@@H](Cc2ccccc2)C(=O)N[C@@H](CC(C)C)C(=O)N2CCC[C@H]2C(=O)N[C@@H](C(C)C)C(=O)N[C@@H](Cc2ccccc2)C(=O)N(C)CC(=O)N[C@@H](CC(C)C)C(=O)N[C@@H](C)C(=O)N1C [DP-24] (AT[NMeF]LPVF[Sar]LA[NMeI]D-Piperidide; lactam N-12) | 52 µL/min/mg
CC[C@H](C)[C@H]1C(=O)NCC(=O)N(C)[C@@H](CC(C)C)C(=O)N[C@@H]([C@@H](C)O)C(=O)N2CCCC[C@H]2C(=O)N[C@@H](Cc2ccccc2)C(=O)N[C@H](C(=O)N2CCCCC2)CC(=O)N(C)[C@@H](C)C(=O)N[C@@H](Cc2ccccc2)C(=O)N(C)[C@@H](CC(C)C)C(=O)N[C@@H](CC(C)C)C(=O)N1C [DP-559] ([NMeA]F[NMeL]L[NMeI]G[NMeL]T[Pip]FD-Piperidide; lactam N-11) | 145 µL/min/mg
CC(C)C[C@@H]1NC(=O)[C@H](CC(C)C)N(C)C(=O)[C@H](Cc2ccccc2)NC(=O)[C@H](C)N(C)C(=O)C[C@@H](C(=O)N2CCCCC2)NC(=O)[C@H](Cc2ccccc2)NC(=O)[C@@H]2CCCN2C(=O)[C@H]([C@@H](C)O)NC(=O)[C@H](CC(C)C)N(C)C(=O)CNC(=O)[C@@H]2CCCCN2C1=O [DP-555] ([NMeA]F[NMeL]L[Pip]G[NMeL]TPFD-Piperidide; lactam N-11) | 95 µL/min/mg
CC[C@H](C)[C@@H]1NC(=O)[C@H](CC(C)C)N(C)C(=O)[C@H](Cc2ccccc2)NC(=O)[C@H](CC(C)C)N(C)C(=O)[C@H](CC(C)C)NC(=O)[C@H](Cc2ccccc2)NC(=O)[C@H]([C@@H](C)O)NC(=O)[C@H](C)N(C)C(=O)[C@H](CC(C)C)NC(=O)CCN(C)C(=O)C[C@@H](C(=O)N2CCCCC2)NC1=O [DP-325] ([NMeβAla]L[NMeA]TFL[NMeL]F[NMeL]ID-Piperidide; lactam N-11) | 99 µL/min/mg
CC[C@H](C)[C@H]1C(=O)N[C@@H](Cc2ccccc2)C(=O)N(C)[C@@H](Cc2ccccc2)C(=O)N[C@@H]([C@@H](C)O)C(=O)N2CCC[C@H]2C(=O)N[C@@H](CC(C)C)C(=O)N[C@H](C(=O)N2CCCCC2)Cc2ccc(cc2)CCCCCC(=O)N[C@@H](C(C)C)C(=O)N(C)CC(=O)N[C@@H](CC(C)C)C(=O)N(C)[C@@H](CC(C)C)C(=O)N[C@@H](C)C(=O)N1C [DP-895] (V[Sar]L[NMeL]A[NMeI]F[NMeF]TPL[Phe(4-(CH2)5CO)]-Piperidide; lactam N-12) | 54 µL/min/mg
CC[C@H](C)[C@@H]1NC(=O)[C@H](Cc2ccccc2)N(C)C(=O)[C@H](CCc2ccccc2)NC(=O)[C@H](C(C)C)N(C)C(=O)[C@H](CC(C)C)N(C)C(=O)[C@H](CC(C)C)NC(=O)[C@@H](C)NC(=O)C[C@@H](C(=O)N2CCCCC2)NC(=O)[C@H]([C@@H](C)O)NC(=O)[C@H](C)NC(=O)[C@H](C)N(C)C1=O [DP-730] ([dA]L[NMeL][NMeV][hPhe][NMeF]I[NMeA]ATD-Piperidide; lactam N-11) | 50 µL/min/mg
CCN1C(=O)[C@H](CC(C)C)N(C)C(=O)[C@H](CC(C)C)NC(=O)[C@@H](C)N(C)C(=O)C[C@@H](C(=O)N2CCCCC2)NC(=O)[C@H](CC(C)C)N(C)C(=O)CN(C)C(=O)[C@H]([C@@H](C)O)NC(=O)[C@H](CC(C)C)N(C)C(=O)[C@H](Cc2ccccc2)N(C)C(=O)[C@H](C)NC(=O)[C@@H]1Cc1ccccc1 [DP-636] ([dNMeA]L[NMeL][NEtPhe]A[NMeF][NMeL]T[Sar][NMeL]D-Piperidide; lactam N-11) | 73 µL/min/mg
CC(C)C[C@H]1C(=O)N(C)CC(=O)N(C)[C@@H](C)C(=O)N[C@@H]([C@@H](C)O)C(=O)N[C@H](C(=O)N2CCCCC2)CC(=O)N[C@H](C(C)C)C(=O)N(C)[C@@H](C)C(=O)N(C)[C@@H](CC(C)C)C(=O)N[C@@H](CC#N)C(=O)N(C)[C@@H](Cc2ccccc2)C(=O)N[C@@H](Cc2ccccc2)C(=O)N1C [DP-629] ([dV][NMeA][NMeL][Ala(CN)][NMeF]F[NMeL][Sar][NMeA]TD-Piperidide; lactam N-11) | 16 µL/min/mg
CC(C)C[C@@H]1NC(=O)[C@H](CC(C)C)N(C)C(=O)[C@H](CC(C)C)N(C)C(=O)CNC(=O)[C@H](Cc2ccccc2)N(C)C(=O)[C@H]([C@@H](C)O)NC(=O)[C@H](CC(C)C)N(C)C(=O)[C@H](Cc2ccc(O)c(F)c2)NC(=O)[C@H](C)NC(=O)C[C@@H](C(=O)N(C)[C@@H](Cc2ccccc2)C(=O)N[C@@H](C)C(=O)N2CCCCC2)NC1=O [DP-605] (A[Tyr(3-F)][NMeL]T[NMeF]G[NMeL][NMeL]LD[NMeF]A-Piperidide; lactam N-10) | 30 µL/min/mg
CC[C@H](C)[C@H]1C(=O)N(C)[C@@H](CC(C)C)C(=O)N[C@H](C(=O)N2CCCCC2)CC(=O)N(C)CC(=O)N[C@@H](CC(C)C)C(=O)N[C@@H]([C@@H](C)O)C(=O)N(C)CC(=O)N(C)[C@@H](Cc2ccccc2)C(=O)N[C@@H](C)C(=O)N(CC)[C@@H](Cc2ccccc2)C(=O)N[C@@H](CC(C)C)C(=O)N1C [DP-638] ([Sar]LT[Sar][NMeF]A[NEtPhe]L[NMeI][NMeL]D-Piperidide; lactam N-11) | 47 µL/min/mg
CCCN1CC(=O)N(C)[C@@H](Cc2ccccc2)C(=O)N[C@@H](C)C(=O)N(C)[C@@H](Cc2ccccc2)C(=O)N(C)[C@@H](CC(C)C)C(=O)N(C)[C@@H]([C@@H](C)CC)C(=O)N(C)[C@@H](CC(C)C)C(=O)N[C@H](C(=O)N2CCCCC2)Cc2cccc(c2)CCCCC(=O)N[C@@H](CC(C)C)C(=O)N[C@@H]([C@@H](C)O)C1=O [DP-867] (LT[NPrGly][NMeF]A[NMeF][NMeL][NMeI][NMeL][Phe(3-(CH2)4CO)]-Piperidide; lactam N-10) | 211 µL/min/mg
